# Reference: article PMC7156724, “Potent BRD4 inhibitor suppresses cancer cell-macrophage interaction” (Nature Communications, 2020)
# Several values for one entry are separate records, joined by “and”; a condition that tells them apart may be missing. Equal values may be shown once.
# Assays:
# [1] = MTS assay of non-cancerous cells; assay type: cell-based, human; settings: human
# Experimental: Supplementary Figure 4. […] (a-c) MTS
# assays of HaCAT cells (immortalized human keratinocytes) treated with the indicated concentration of
# NHWD-870 for 24h (a), 48h (b) or 72h (c). Data are presented as mean ± SEM of 5 independent experiments.
# p values were calculated from two-tailed, unpaired t tests. Source data are provided as a Source Data file.
# 37℃, 5% CO2. […]
# [2] = system: A2780 cells; experiment: Clonogenic (colony formation) assay, A2780; assay type: cell-based, human; settings: A2780, 250 nM, 5 days
# Experimental: Fig. 2 NHWD-870 inhibited BRD4 phosphorylation and c-MYC expression, and suppressed cell growth. a Representative western blot analysis of p-BRD4 (s484/488), BRD4, c-MYC, and GAPDH after treatment of MDA-MB231, SUM159, A2780 ES-2, and H526 cells with JQ-1 or NHWD-870 at the indicated concentrations for 24 h. GAPDH served as the loading control. Selected from three independent experiments. b MTT assays of H526, A2780, ES-2, and MDA-MB231 cells treated with JQ-1 or NHWD-870 at the indicated concentrations for 5 days. Data are presented as mean ± SEM from three independent experiments. c, d Clonogenic assays of H526, A2780, ES-2 and MDA-MB231 cells treated with 250 nM JQ-1 or NHWD-870 for 5 days. Shown are representative images (c) and quantification of colonies (d). […] Shown are representative images (e) and quantification of relative colony sizes (f). Scale bar, 50 μm. Data are presented as mean ± SEM from five independent experiments. p values were calculated using two-tailed, unpaired t tests in this figure. **p < 0.01; ***p < 0.001. Source data are provided as a Source Data file. […]
# 5. Colony formation assay. Cells were seeded in 6-well plates at 3,000 cells/well […]
# every week. […] Colony numbers were calculated with imageJ version
# [3] = system: ES-2 cells; experiment: 3D matrigel assay, ES-2; assay type: cell-based, human; settings: ES-2, 100 nM
# Experimental: Fig. 2 NHWD-870 inhibited BRD4 phosphorylation and c-MYC expression, and suppressed cell growth. a Representative western blot analysis of p-BRD4 (s484/488), BRD4, c-MYC, and GAPDH after treatment of MDA-MB231, SUM159, A2780 ES-2, and H526 cells with JQ-1 or NHWD-870 at the indicated concentrations for 24 h. GAPDH served as the loading control. Selected from three independent experiments. b MTT assays of H526, A2780, ES-2, and MDA-MB231 cells treated with JQ-1 or NHWD-870 at the indicated concentrations for 5 days. Data are presented as mean ± SEM from three independent experiments. c, d Clonogenic assays of H526, A2780, ES-2 and MDA-MB231 cells treated with 250 nM JQ-1 or NHWD-870 for 5 days. Shown are representative images (c) and quantification of colonies (d). […] Shown are representative images (e) and quantification of relative colony sizes (f). Scale bar, 50 μm. Data are presented as mean ± SEM from five independent experiments. p values were calculated using two-tailed, unpaired t tests in this figure. **p < 0.01; ***p < 0.001. Source data are provided as a Source Data file.
# (§1) Single clone spheroids were generated by culturing A2780, ES-2, H526 and MDA-MB231 cells for 16 h as a hanging drop over a humidified plate in a CO2 incubator in their corresponding complete media. […] The relative spheroid sizes were measured with ImageJ version 1.52s using the 15 representative spheroids.
# [4] = system: TAMs; experiment: 3D Matrigel culture of TAMs, direct treatment; assay type: cell-based, mouse
# Experimental: CD45^+CD11b^+F4/80^+ TAMs were isolated from peritoneal metastasis of A2780 tumor-bearing mice and cultured in RPMI-1640 supplemented with 10% FBS, 1% penicillin/streptomycin, and 0–50 ng/ml CSF1 (R&D Systems) as indicated according to standard protocols. In the cancer cell-macrophage co-culture experiments, CSF1 was not added. In the transwell (Corning, pore size, 0.4 μm) co-culture experiments, tumor cells were placed into the upper chamber, and TAMs were seeded into the lower chamber.
# as §1, with “spheroids. […]” for “spheroids.”
# with anti-CD45, CD11b and CD206 followed by FACS analysis. Shown are representative FACS plots (c) and quantification of the percentage of CD11b+CD206+ cells (d). Data are presented as mean ± SEM from 5 different mice. p values were calculated using two-tailed, unpaired t tests. **, p<0.01; ***, p<0.001. […] Quantification of spheroid volumes (f). Data are presented as mean ± SEM from 15 independent experiments. p values were calculated using two-tailed, unpaired t tests. **, p<0.01. […]
compound,measurement,setting,value
Cc1nnn(C)c1-c1cnc2c3c4cnn(C)c4ccc3n([C@H](c3ccccc3)C3CCOCC3)c2c1 [NHWD-870],"viability at 24 h, 0.008 µM","[1]; HaCAT cells (immortalized human keratinocytes), 24h, 8 nM, read-out: Cell viability (Sup Fig.4a)",92.2%
same,"viability at 24 h, 0.016 µM","[1]; HaCAT cells (immortalized human keratinocytes), 24h, 16 nM, read-out: Cell viability (Sup Fig.4a)",110%
same,"viability at 24 h, 0.064 µM","[1]; HaCAT cells (immortalized human keratinocytes), 24h, 64 nM, read-out: Cell viability (Sup Fig.4a)",103%
same,"viability at 24 h, 0.25 µM","[1]; HaCAT cells (immortalized human keratinocytes), 24h, 250 nM, read-out: Cell viability (Sup Fig.4a)",104%
same,"viability at 24 h, 0.5 µM","[1]; HaCAT cells (immortalized human keratinocytes), 24h, 500 nM, read-out: Cell viability (Sup Fig.4a)",100%
same,"viability at 48 h, 0.032 µM","[1]; HaCAT cells (immortalized human keratinocytes), 48h, 32 nM, read-out: Cell viability (Sup Fig.4b)",91%
same,"viability at 48 h, 0.064 µM","[1]; HaCAT cells (immortalized human keratinocytes), 48h, 64 nM, read-out: Cell viability (Sup Fig.4b)",83.9%
same,"viability at 48 h, 0.25 µM","[1]; HaCAT cells (immortalized human keratinocytes), 48h, 250 nM, read-out: Cell viability (Sup Fig.4b)",88.5%
same,"viability at 48 h, 0.5 µM","[1]; HaCAT cells (immortalized human keratinocytes), 48h, 500 nM, read-out: Cell viability (Sup Fig.4b)",86.7%
same,"viability at 48 h, 1 µM","[1]; HaCAT cells (immortalized human keratinocytes), 48h, 1000 nM, read-out: Cell viability (Sup Fig.4b)",87.1%
same,"viability at 72 h, 0.008 µM","[1]; HaCAT cells (immortalized human keratinocytes), 72h, 8 nM, read-out: Cell viability (Sup Fig.4b, 72h)",99.5%
same,"viability at 72 h, 0.016 µM","[1]; HaCAT cells (immortalized human keratinocytes), 72h, 16 nM, read-out: Cell viability (Sup Fig.4b, 72h)",90.2%
same,"viability at 72 h, 0.032 µM","[1]; HaCAT cells (immortalized human keratinocytes), 72h, 32 nM, read-out: Cell viability (Sup Fig.4b, 72h)",86.9%
same,"viability at 72 h, 0.064 µM","[1]; HaCAT cells (immortalized human keratinocytes), 72h, 64 nM, read-out: Cell viability (Sup Fig.4b, 72h)",89.6%
same,"viability at 72 h, 0.25 µM","[1]; HaCAT cells (immortalized human keratinocytes), 72h, 250 nM, read-out: Cell viability (Sup Fig.4b, 72h)",78.9%
same,"viability at 72 h, 0.5 µM","[1]; HaCAT cells (immortalized human keratinocytes), 72h, 500 nM, read-out: Cell viability (Sup Fig.4b, 72h)",87.1%
same,"viability at 72 h, 1 µM","[1]; HaCAT cells (immortalized human keratinocytes), 72h, 1000 nM, read-out: Cell viability (Sup Fig.4b, 72h)",78.4%
same,"viability at 24 h, 1 µM","[1]; HaCAT cells (immortalized keratinocytes), 24h, 1000 nM, read-out: Cell viability (Sup Fig.4a)",108%
same,"viability at 48 h, 0.008 µM","[1]; HaCAT cells (immortalized keratinocytes), 48h, 8 nM, read-out: Cell viability (Sup Fig.4b)",86.6%
same,"viability at 48 h, 0.016 µM","[1]; HaCAT cells (immortalized keratinocytes), 48h, 16 nM, read-out: Cell viability (Sup Fig.4b)",89.9%
same,Clone Number (clonogenic assay),[2],378 and 355 and 313 and 209 and 273
same,"Clone Size (relative colony size, 3D matrigel assay)",[3],35.3 and 32.7 and 30.1 and 25.5 and 23.9
same,fold inhibition of colony size of macrophages,[4],< 2 fold
same,decrease of the ability of TAMs to form colonies in a 3D culture system,[4]; 100 nM,< 50%
